In patent US7118692B2, “Substituted thienothiophene monomers and conducting polymers” (priority 2004, dated 2006):

Columns and labels:
[1] = solubility of monomer in solvents; format: physicochemical; conditions: wide variety of solvents
Text: The tert-butyl substituted thienothiophenes and their conjugated oligomers and polymers show better properties compared to their hydrogen, decyl and phenyl analogs.

[2] = toxicity testing, dermal LD50; conditions: in vivo, topical or ocular
[3] = toxicity testing, oral LD50; conditions: in vivo

| SMILES | solubility in solvents [1] | LD50 [2] [mg/kg] | LD50 [3] [mg/kg] |
| --- | --- | --- | --- |
| c1ccc(-c2cc3cscc3s2)cc1 [2-phenyl-thieno[3,4-b]thiophene] | only sparingly soluble |  |  |
| CC(C)(C)c1cc2cscc2s1 [2-tert-butyl-thieno[3,4-b]thiophene] | readily soluble in a wide variety of solvents | > 400 | > 500 |
| c1cc2cscc2s1 [Thieno[3,4-b]thiophene] |  | 200 to 400 | 50 |
